Tests used:
Assay type in all cases: functional, Homo sapiens
Design in all cases: dose or concentration left out as unconfirmed
Colon cancer organoid [1] = assay: Optimized Dual-Glo assay to identify co-culture induced drug vulnerabilities using donated chemical probes and chemogenomics kinase set in O06 CRC organoid and F06 CAF mono and co-culture. […] Cell viability is reported both mono and co-culture models.
Colon cancer organoid [2] = assay: Optimized Dual-Glo assay to identify co-culture induced drug vulnerabilities using donated chemical probes and chemogenomics kinase set in O14 CRC organoid and F14 CAF mono and co-culture. […] Cell viability is reported both mono and co-culture models.
Colon cancer organoid [3] = assay: Optimized Dual-Glo assay to identify co-culture induced drug vulnerabilities using donated chemical probes and chemogenomics kinase set in O20 CRC organoid and F20 CAF mono and co-culture. […] Cell viability is reported both mono and co-culture models.
[4] = Culture type Co-Culture, Transduced with Lucferase2-P2A-EGFP lentivirus
[5] = Culture type Co-Culture, Transduced with Renilla-dsRed lentivirus
[6] = Culture type Mono-Culture, Transduced with Lucferase2-P2A-EGFP lentivirus
[7] = Culture type Mono-Culture, Transduced with Renilla-dsRed lentivirus

| Structure (SMILES) | Cell Viability (Colon cancer organoid [1]; [4]) [%] | Cell Viability (Colon cancer organoid [1]; [5]) [%] | Cell Viability (Colon cancer organoid [1]; [6]) [%] | Cell Viability (Colon cancer organoid [1]; [7]) [%] | Cell Viability (Colon cancer organoid [2]; [4]) [%] | Cell Viability (Colon cancer organoid [2]; [5]) [%] | Cell Viability (Colon cancer organoid [2]; [6]) [%] | Cell Viability (Colon cancer organoid [2]; [7]) [%] | Cell Viability (Colon cancer organoid [3]; [4]) [%] | Cell Viability (Colon cancer organoid [3]; [5]) [%] | Cell Viability (Colon cancer organoid [3]; [6]) [%] | Cell Viability (Colon cancer organoid [3]; [7]) [%] |
| --- | --- | --- | --- | --- | --- | --- | --- | --- | --- | --- | --- | --- |
| c1ccc(C2CCN(c3cnc4c(N5CCOCC5)nccn34)CC2)cc1 | 98.2025 | 98.7191 | 229.272 | 111.241 | 111.149 | 110.22 | 155.031 | 89.751 | 90.2822 | 108.246 | 142.742 | 115.191 |
| Cc1c(Nc2ccc(S(=O)(=O)N3CCN(C)CC3)cc2F)nc2ccc(-c3cnn(C4CC4)c3)cn2c1=O | 106.525 | 138.146 | 47.9872 | 100.536 | 89.9801 | 85.4908 | 97.5645 | 92.3914 | 100.034 | 149.535 | 70.24 | 85.351 |
| C[C@]1(O)C[C@@H](c2nc(-c3ccc4ccc(-c5ccccc5)nc4c3)c3c(N)nccn32)C1 [LINSITINIB] | 53.0716 | 100.619 | 21.1574 | 74.7669 | 41.9562 | 109.271 | 38.702 | 83.4141 | 60.4709 | 65.9185 | 18.406 | 73.2347 |
| Cc1noc(C)c1-c1cnc2c(-c3ccc(C(=O)O)cc3)cn([C@@H](C)c3ccccn3)c2c1 [PLX-51107] | 26.8486 | 312.702 | 23.3668 | 265.011 | 32.5617 | 348.195 | 30.1969 | 207.472 | 17.6563 | 177.825 | 24.073 | 120.563 |
| C=CC(=O)Nc1ccc2[nH]c(=O)n(C3CCN(C(=O)c4ccc(-c5nc6cc[nH]c(=O)c6cc5-c5ccccc5)cc4)CC3)c2c1 | 100.634 | 129.997 | 117.336 | 96.7859 | 111.176 | 112.94 | 102.423 | 83.7994 | 101.159 | 80.5582 | 103.07 | 78.5683 |
| COc1nc2ccc([C@@](O)(c3ccccc3)C3CCN(C(C)=O)CC3)cc2c(Cl)c1Cc1ccc(-n2cccn2)cc1 [JNJ-54119936] | 98.9754 | 75.6952 | 103.766 | 113.997 | 91.6435 | 104.692 | 80.3234 | 104.355 | 65.101 | 118.395 | 94.7218 | 120.218 |
| O=C(O)[C@@H]1[C@@H](Cn2nnc3ccccc3c2=O)CC[C@H]1C(=O)c1ccc(OCCC2CCOCC2)cc1 [BAY-694] | 117.739 | 144.793 | 97.4704 | 83.1858 | 106.85 | 112.908 | 118.458 | 100.512 | 92.0939 | 91.7477 | 167.035 | 108.76 |
| CC(C)(C#Cc1ccc(NC(=O)COc2ccccc2C(=O)c2ccccc2)c(Cl)c1)C(=O)O [BI 2439] | 98.7582 | 98.9732 | 147.342 | 109.263 | 91.5107 | 105.147 | 118.998 | 103.818 | 147.968 | 100.148 | 97.854 | 121.686 |
| CN(C)[C@H]1CCN(c2cc(-c3ccccc3)nc3ccnn23)C1 [(S)-ZINC-3573] | 87.7689 | 121.05 | 76.4871 | 118.538 | 106.455 | 83.2705 | 93.2108 | 87.5469 | 92.3796 | 112.128 | 114.664 | 102.75 |
| COc1cc2c(cc1-c1c(C)noc1C)ncc1[nH]c(=O)n([C@H](C)c3ccccn3)c12 | 43.5488 | 325.273 | 54.5625 | 294.029 | 36.9013 | 317.138 | 43.8564 | 208.742 | 26.0295 | 172.215 | 25.6738 | 101.868 |
| CCN(C(=O)CO)[C@H]1CN(/C(=N\C#N)Nc2cccc(OC(F)F)c2)N=C1c1ccc(Cl)c(Cl)c1 | 100.328 | 102.729 | 73.2581 | 127.729 | 96.421 | 116.48 | 90.9581 | 97.9735 | 98.0443 | 141.776 | 125.834 | 95.5224 |
| Cn1cncc1[C@@](O)(COc1ccc(C#N)cc1-c1ccc(OC(F)(F)F)cc1)c1ccc(C#N)cc1 [A-108] | 113.578 | 151.877 | 88.7228 | 108.002 | 57.9117 | 92.8032 | 90.1674 | 97.2035 | 89.1467 | 110.638 | 65.4211 | 112.38 |
| COc1cc2c(NC3CCN(C(C)C)CC3)nc(N3CCC(F)(F)CC3)nc2cc1OCCCN1CCCC1 | 88.0521 | 104.162 | 44.5913 | 47.5732 | 56.1565 | 72.4133 | 84.8802 | 67.5673 | 136.034 | 132.743 | 70.3827 | 53.0002 |
| Cc1c(NC(=O)c2cc(C(N)=O)nc3cc(F)ccc23)c(C(F)(F)F)nn1Cc1ccc(C#N)cc1 [BAY-876] | 9.2808 | 424.118 | 4.84 | 74.218 | 22.1239 | 120.557 | 31.4127 | 63.4994 | 13.842 | 190.785 | 15.2674 | 77.5911 |

Reference: ChEMBL document CHEMBL5674860, “Optimized Dual-Glo Assay to identify co-culture-induced drug vulnerabilities in 3D CRC models” (2024)
